Measurements from US7659270B2, “Hepatitis C virus inhibitors” (Bristol-Myers Squibb Company, priority 2006, dated 2010).
Where two headings read alike, the source gives them in different places.

System: HCV 1b-377-neo replicon cells
Test: HCV replicon assay (HCV 1b-377-neo replicon cells)
Assay type: cell-based, Hepatitis C virus genotype 1b
Method in brief: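 HCV genotype 1b (1b-377-neo) replicon cells, run as a validated replicon assay; parallel testing in replicon cells carrying the NS5A Y2065H resistance mutation.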

[1] = Hepatitis C virus, read-out: EC50 range against HCV 1b (Range)

| Compound | EC50 [1] [nM] | EC50 (listed as 151 isomer 2, read-out: EC50 range against HCV 1b (Range)) [nM] |
| --- | --- | --- |
| CO[C@@H](C(=O)N1CCC[C@H]1c1ncc(-c2ccc(-c3ccc(-c4cnc([C@@H]5CCCN5C(=O)[C@H](OC)c5ccccc5)[nH]4)cn3)cc2)[nH]1)c1ccccc1 [Example 135, 5-(2-((2S)-1-((2R)-2-methoxy-2-phenylacetyl)-2-pyrrolidinyl)-1H-imidazol-5-yl)-2-(4-(2-((2S)-1-((2R)-2-methoxy-2-phenylacetyl)-2-pyrrolidinyl)-1H-imidazol-5-yl)phenyl)pyridine] | 0.01 to 0.999 | – |
| CN(C)[C@@H](C(=O)N1CSC[C@H]1c1ncc(-c2ccc(-c3ccc(-c4cnc([C@@H]5CSCN5C(=O)[C@@H](c5ccccc5)N(C)C)[nH]4)cc3)cc2)[nH]1)c1ccccc1 [Example 148, (1R,1′R)-2,2′-(4,4′-biphenyldiylbis(1H-imidazole-5,2-diyl(4R)-1,3-thiazolidine-4,3-diyl))bis(N,N-dimethyl-2-oxo-1-phenylethanamine)] | 1 to 99 | – |
| C[C@@H](c1ncc(-c2ccc(-c3ccc(-c4cnc([C@H](C)N(C)C(=O)[C@@H](c5ccccc5)N(C)C)[nH]4)cc3)cc2)[nH]1)N(C)C(=O)[C@@H](c1ccccc1)N(C)C [Example 24-18-2, (2R,2′R)-N,N′-(4,4′-biphenyl-diylbis(1H-imidazole-5,2-diyl(1S)-1,1-ethane-diyl))bis(2-(dimethyl-amino)-N-methyl-2-phenyl-acetamide)] | 0.01 to 0.999 | – |
| COC(=O)N[C@@H](C(=O)N[C@@H](C)c1ncc(-c2ccc(-c3cnc(-c4cnc([C@@H]5CCCN5C(=O)[C@H](NC(=O)OC)c5ccccc5)[nH]4)cn3)cc2)[nH]1)c1ccccc1 [Example 152j-28] | 0.01 to 0.999 | – |
| COC(=O)N[C@@H](C(=O)N1CCC[C@H]1c1ncc(-c2ccc(-c3ccc(-c4cnc([C@@H]5CCCN5C(=O)[C@H](NC(=O)OC)c5ccccc5)[nH]4)cc3CN(C)C)cc2)[nH]1)c1ccccc1 [Example M121, dimethyl((2-((dimethylamino)methyl)-4,4′-biphenyldiyl)bis(1H-imidazole-5,2-diyl(2S)-2,1-pyrrolidinediyl((1R)-2-oxo-1-phenyl-2,1-ethanediyl)))biscarbamate] | 100 to 999 | – |
| CN(C)[C@@H](C(=O)N1CCC[C@H]1c1nc(-c2ccc(-c3ccc(-c4cn(C)c([C@@H]5CCCN5C(=O)[C@@H](c5ccccc5)N(C)C)n4)cc3)cc2)cn1C)c1ccccc1 (single isomer, unassigned) [Example 151 isomer 2] | – | 100 to 999 |
| COC(=O)N[C@@H](C(=O)N1CCC[C@H]1c1ncc(-c2ccc(-c3ccc(-c4cnc([C@@H]5CCCN5C(=O)[C@H]5CCCO5)[nH]4)cn3)cc2)[nH]1)c1ccccc1 [Example 141, methyl ((1R)-2-oxo-1-phenyl-2-((2S)-2-(5-(4-(5-(2-((2S)-1-((2R)-tetrahydro-2-furanylcarbonyl)-2-pyrrolidinyl)-1H-imidazol-5-yl)-2-pyridinyl)phenyl)-1H-imidazol-2-yl)-1-pyrrolidinyl)ethyl)carbamate] | 0.01 to 0.999 | – |
| CN(C)[C@@H](C(=O)N1CCC[C@H]1c1ncc(-c2ccc(-c3ccc(-c4cnc([C@@H]5CCCN5C(=O)[C@@H](c5ccccc5)N(C)C)[nH]4)cc3)cc2)[nH]1)c1ccccc1 [Example 1, (1R,1′R)-2,2′-(4,4′-biphenyldiylbis(1H-imidazole-5,2-diyl(2S)-2,1-pyrrolidinediyl))bis(N,N-dimethyl-2-oxo-1-phenylethanamine)] | 0.01 to 0.999 | – |
